According to patent publication US10155802B2, “Locally-active anticoagulants and anti-inflammatory agents” (priority 2011, dated 2018):

What was measured:
Format in all cases: biochemical
[1] = tested on: human coagulation proteome; assay: Synthetic coagulation proteome assay (thrombin generation)
Description: This assay is carried out using an established protocol as described previously (Brummel-Ziedens 2008). Briefly, a pro-cofactor solution containing re-lipidated tissue factor (10 pM; molar ratio PCPS:TF=5000) was incubated with 4 μM PCPS in HBS (20 mM HEPES and 150 mM NaCl at pH 7.4) and 2 mM CaCl2 for 8 min at 37° C. Factor V (40 nM) and Factor VIII (1.4 nM) were then added to the mixture prior to initiation of the reaction to activate the protease zymogens in the blood coagulation cascade. The activation reaction was initiated by addition of the pro-cofactor solution to a zymogen solution containing prothrombin (2.8 μM), Factor VII (20 nM), Factor Vila (0.2 nM), FX (340 nM), Factor IX (180 nM), Factor XI (60 nM), TFPI (5 nM), antithrombin III (6.8 μM) […]
At selected time points after initiation of the reaction, 10 μL aliquots were withdrawn from the reaction mixture and quenched in 20 mM EDTA in HBS (pH 7.4) containing 0.2 mM Spectrozyme™ TH and assayed immediately for the proteolytic activity of thrombin. The hydrolysis of Spectrozyme™ TH was monitored by the change in absorbance at 405 nm using a SpectraMax™ plate reader (Molecular Devices Corp., Menlo Park, Calif., USA). Concentration of thrombin generated by the reaction was calculated from a standard curve prepared by serial dilutions of known concentrations of α-thrombin using the fibrinogen clotting assay (DiMaio 1990). Fibrinogen solution was freshly prepared by dissolving about 0.5% (w/v) fibrinogen in 50 mM Tris-HCl, 100 mM NaCl, 0.1% PEG-8000, pH 7.6 and filtering the resulting solution through a hydrophilic membrane of 0.45 μm polyvinylidene fluoride (PVDF) with low protein binding. The concentration of fibrinogen after filtration was determined by using the extinction coefficient of 15.0 for 1% fibrinogen at 280 nm. […] Thrombin-induced clotting of fibrinogen was followed at 25° C. by measuring the optical absorbance at 420 nm. The clotting time was obtained from extrapolation of the slope at the point of inflection to the zero absorbance baseline. […]

pooled human plasma = assay: Activated partial thromboplastin time (APTT) clotting assay
Description: Prothrombin (clotting) time (PT) or activated partial thromboplastin (clotting) time (APTT) assays were carried out at certain concentrations of the thrombin inhibitors of the present invention using pooled human plasma with addition of thromboplastin or activated partial thromboplastin to initiate clotting. The assays employed kits from Biopool International (Ventura, Calif., USA) or from Pacific Haemostasis (Middletown, Va., USA) using the procedures supplied by the manufacturer. Briefly, the stock solution of an inhibitor (with the concentration determined using UV-based OD determination, see Gill 1989) is diluted in a buffer of 20 mM HEPES and 150 mM NaCl at pH 7.4 (HBS) to a final volume of 50 μL, to which is added the reconstituted normal plasma (Product #CMS-176172 from Fisher Scientific) in an equal volume. This solution mixture is equilibrated at 37° C. for 2 minutes before 50 μL of the APTT-10XL solution (CMS-022927) is introduced forcibly to ensure proper mixing. This new mixture was incubated at 37° C. for another 5 minutes, which is followed by the addition of 50 μL of 0.02 M […] (Fisher Scientific CMS-022925) pre-warmed at 37° C. For the prothrombin time (PT) assay, an inhibitor is diluted in HBS to a final volume of 25 μL, to which is added the reconstituted control plasma (Fisher Scientific CMS-176172) in an equal volume. This solution mixture is equilibrated at 37° C. for 5 minutes before addition of 100 μL of the thromboplastin solution (CMS-176099) pre-warmed at 37° C. For APTT assays, inhibitory activities of the peptides are expressed as concentrations needed to achieve 50% of the maximum delay in clotting time (MCT50) as compared to the absence of thrombin inhibitors (Maraganore 1989). For PT assays, inhibitory activities are measured as the concentrations of the peptides that prolong the clotting time by 50% (IC50) of that of the normal control plasma (Maraganore 1990). PT and APTT assays were also carried out using slightly modified experimental procedures. Thus, 50 μL of a control plasma (Pacific Hemostasis) solution was added to 100 μL HBS (20 mM HEPES and 150 mM NaCl at pH 7.4) containing varied concentrations of the peptides of this invention. After incubation at 37° C. for 5 min, the mixture was added to 50 μL of the thromboplastin or activated partial thromboplastin reagent. Clotting of the plasma was monitored by change in absorbance at 420 nm using a SpectraMax™ plate reader.

thrombin = thrombin (Homo sapiens, UniProt P00734); assay: Fibrinogen clotting assay (concentration needed to double the clotting time = IC50); settings: for IC50: IC50 (anti-clotting)
Description: The same enzyme kinetic assays were used to determine the inhibitory activities of MH2 and two MH2-derived peptides, MH2-allGS and MH2-GS (Table 4). Clotting assays were carried out to determine the inhibitory activities of the rest of the MH2 peptides by use of the protocols described previously (DiMaio 1990; Taka 2000; Su 2004). The assay employs bovine plasma fibrinogen dissolved at 0.1% in 50 mM Tris-Cl, 100 mM NaCl, 0.1% PEG-8000 at pH 7.6 (i.e. the clotting buffer). In addition to the use of optical densities or ODs (Gill 1989), concentrations of the peptide stock solutions were ranked (and corrected when necessary) by use of quantitative proton NMR spectroscopy (Cavaluzzi 2002). Each assay mixture contained a certain concentration of the peptide, and the reaction was started by the addition of human thrombin to a final concentration of approximately 0.5 nM. Optical absorbance of the assay mixtures was measured at 420 nm using the Spectramax™ plate reader. The onset clotting time was determined as an intersection of the baseline and the tangent line at point of inflection of the clotting curve. The concentration of an MH2 peptide needed to double the clotting time was defined as IC50 (DiMaio 1990) as illustrated in FIG. 4 and summarized in Table 4. The correlation between IC50 values and linker unfolding is similar to that for the BTI series of inhibitors (Table 3). […] (Table 3).

CC[C@H](C)[C@H](N)C(=O)N[C@@H](CCCNC(=N)N)C(=O)N[C@@H](Cc1ccccc1)C(=O)N[C@H](C(=O)N[C@@H](CC(=O)O)C(=O)NCC(=O)N[C@@H](CCC(=O)O)C(=O)N[C@@H](Cc1c[nH]c2ccccc12)C(=O)N[C@H](C(=O)N[C@@H](Cc1c[nH]c2ccccc12)C(=O)N[C@@H](CC(=O)O)C(=O)N[C@@H](CC(=O)O)C(=O)N[C@@H](C)C(=O)N[C@H](C(=O)N[C@@H](CCCCN)C(=O)N[C@H](C(=O)N[C@@H](Cc1c[nH]c2ccccc12)C(=O)N[C@H](C(=O)N[C@@H](Cc1c[nH]c2ccccc12)C(=O)N[C@H](C(=O)N[C@@H](CCC(=O)O)C(=O)NCC(=O)N[C@@H](CC(=O)O)C(=O)N[C@@H](Cc1ccccc1)C(=O)N[C@@H](CCC(=O)O)C(=O)N[C@@H](CCC(=O)O)C(=O)N[C@H](C(=O)N1CCC[C@H]1C(=O)N[C@@H](CCC(=O)O)C(=O)N[C@@H](CCC(=O)O)C(=O)N[C@@H](Cc1ccc(O)cc1)C(=O)N[C@@H](CC(C)C)C(=O)N[C@@H](CCC(N)=O)C(=O)O)[C@@H](C)CC)[C@@H](C)O)[C@@H](C)O)[C@@H](C)O)[C@@H](C)O)[C@@H](C)O)[C@@H](C)O [MH2-wZIP4]
delay of thrombin burst / onset of thrombin generation ([1]; 37° C.): very little delay in the onset of thrombin generation
delay of onset of thrombin generation with increase of bulk temperature ([1]; 42° C. versus 37° C.): delaying effect is increased somewhat
EC50 (pooled human plasma; 37° C., concentration for 50% of maximum delay in clotting time, read-out: MTC50 (APTT)): 8000 nM
dose response in APTT assays (pooled human plasma; in words): saturable dose response
Ki (thrombin): ~150 nM
IC50 (thrombin; T = 25° C.): ~250 nM
IC50 (thrombin; T = 37° C.): 154 nM
